From patent US12018097
Like-named read-outs stand apart in the source and are kept apart here.

Conditions: the molecule shown is the open-chain precursor, thioether bond, resin, 4 steps

“catch-resin-ArSO2O-CH2CO-dTrp-Asp-MeSer-Gly-Asp-Pro-MeAla-Asp-Val-MeSer-Gly-Arg-MePhe-MeGly-Tyr-MePhe-Pro-Cys-Gly-NH2?” showed a ring closure, conversion (57-membered ring) of 50%.

Work on “catch-resin-ArSO2O-CH2CO-dTrp-Asp-Pro-MeAla-Asp-Val-MeSer-Gly-Arg-MePhe-MeGly-Tyr-MePhe-Pro-Cys-Gly-NH2?” yielded a ring closure, conversion (48-membered ring) of 74%.

With “catch-resin-ArSO2O-CH2CO-dTrp-Cys-Asp-Val-MeSer-Gly-Arg-MePhe-MeGly-Tyr-MePhe-Pro-Cys-Gly-NH2?” the ring closure, conversion (42-membered ring) was 28%.

In the case of “catch-resin-ArSO2O-CH2CO-dTrp-Gly-Asp-Pro-MeAla-Asp-Val-MeSer-Gly-Arg-MePhe-MeGly-Tyr-MePhe-Pro-Cys-Gly-NH2?”, the ring closure, conversion (51-membered ring) is reported as 51%.

For “catch-resin-ArSO2O-CH2CO-dTrp-MeAla-Asp-Val-Cys-Gly-NH2?”, the ring closure, conversion (18-membered ring) was 83%.

For “catch-resin-ArSO2O-CH2CO-dTrp-MeAla-Asp-Val-MeSer-Cys-Gly-NH2?”, the ring closure, conversion (21-membered ring) was 66%.

Substance “catch-resin-ArSO2O-CH2CO-dTrp-MeAla-Asp-Val-MeSer-Gly-Arg-Cys-Gly-NH2?” has a ring closure, conversion (27-membered ring) of 98%.

“catch-resin-ArSO2O-CH2CO-dTrp-MeAla-Asp-Val-MeSer-Gly-Arg-MePhe-MeGly-Cys-Gly-NH2?” showed a ring closure, conversion (33-membered ring) of 64%.

Substance “catch-resin-ArSO2O-CH2CO-dTrp-MeAla-Asp-Val-MeSer-Gly-Arg-MePhe-MeGly-Tyr-Cys-Gly-NH2?” has a ring closure, conversion (36-membered ring) of 72%.

Work on “catch-resin-ArSO2O-CH2CO-dTrp-MeAla-Asp-Val-MeSer-Gly-Arg-MePhe-MeGly-Tyr-MePhe-Pro-Cys-Gly-NH2?” yielded a ring closure, conversion (42-membered ring) of 50%.

With “catch-resin-ArSO2O-CH2CO-dTrp-MeAla-Tyr-Asp-MeSer-Gly-Asp-Pro-MeAla-Asp-Val-MeSer-Gly-Arg-MePhe-MeGly-Tyr-MePhe-Pro-Cys-Gly-NH2?” the ring closure, conversion (63-membered ring) was 44%.

Work on “catch-resin-ArSO2O-CH2CO-dTrp-MeSer-Gly-Asp-Pro-MeAla-Asp-Val-MeSer-Gly-Arg-MePhe-MeGly-Tyr-MePhe-Pro-Cys-Gly-NH2?” yielded a ring closure, conversion (54-membered ring) of 29%.

In the case of “catch-resin-ArSO2O-CH2CO-dTrp-Pro-MeAla-Asp-Val-MeSer-Gly-Arg-MePhe-MeGly-Tyr-MePhe-Pro-Cys-Gly-NH2?”, the ring closure, conversion (45-membered ring) is reported as 33%.

Substance “catch-resin-ArSO2O-CH2CO-dTrp-Tyr-Asp-MeSer-Gly-Asp-Pro-MeAla-Asp-Val-MeSer-Gly-Arg-MePhe-MeGly-Tyr-MePhe-Pro-Cys-Gly-NH2?” has a ring closure, conversion (60-membered ring) of 57%.
